From patent publication US11230535B2, “CFTR regulators and methods of use thereof” (THE REGENTS OF THE UNIVERSITY OF CALIFORNIA, priority 2015, dated 2022) come the findings set out here.

Structures are written as SMILES. Entries after “also recorded” stand apart in the source; their conditions may differ.

One data set deals with mice. In words: In vivo whole-gut transit time. Further details: species or system mouse. The protocol: Whole-gut transit time was determined using an orally administered marker (200 μL, 5% Evans Blue, 5% gum Arabic) and measuring the time of its appearance in stool. Mice were administered loperamide and CFTRact-J027 (10 mg/kg) or vehicle intraperitoneally at zero time. For ex vivo contractility measurements, mice were euthanized by avertin overdose (200 mg/kg, 2,2,2-tribromethanol, Sigma-Aldrich) and ileum and colon segments of ˜2 cm length were isolated and washed with Krebs-Henseleit buffer. The ends of the intestinal segments were tied, connected to a force transducer (Biopac Systems, Goleta, Calif., USA) and tissues were transferred to an organ chamber (Biopac Systems) containing Krebs-Henseleit buffer at 37° C. aerated with 95% O2, 5% CO2. Ileum and colon were stabilized for 60 min with resting tensions of 0.5 and 0.2 g respectively, and solutions were changed every 15 min. Effects of CFTRact-J027 on baseline and loperamide-suppressed isometric intestinal contractions were recorded.
In vivo intestinal transit and ex vivo intestinal contractility. Whole-gut transit time was determined using an orally administered marker (200 μL, 5% Evans Blue, 5% gum Arabic) and measuring the time of its appearance in stool. […] Effects of CFTRact-J027 on baseline and loperamide-suppressed isometric intestinal contractions were recorded.

The nature of data set [1]: 7-day oral toxicity study in mice (blood count, serum chemistry, body weight, lung wet/dry weight). It counts as in vivo, mouse. An excerpt: Chronic administration and toxicity studies.
Data set [2] has as its system BALB/c mice after lacrimal gland excision. The experiment in a line: Lacrimal gland excision (LGE) mouse model of aqueous-deficient dry eye. Format: in vivo. On the procedure: To assess corneal epithelial disruption, 5 μL of lissamine green (LG) dye (1%) was applied to the ocular surface of isofluorane-anesthetized mice. Photographs of the eye were taken using a Nikon Digital camera adapted to an Olympus Zoom Stereo Microscope (Olympus, Center Valley, Pa., USA). Each corneal quadrant was scored on a 3-point scale by one blinded, trained observer, with the extent of staining in each quadrant classified as: 0, no staining; 1, sporadic (involving <25% of the total surface) staining; grade 2, diffuse punctate staining (25-75%); and grade 3, coalesced punctate staining (≥75%). The total grade is reported as the sum of scores from all four quadrants, ranging from 0 to 12.
A lacrimal gland excision (LGE) model of aqueous-deficient dry eye was adapted from a reported method (30). The extraorbital lacrimal gland was exposed on each side of wild-type female BALB/c mice (7-8 weeks of age) by 3-mm linear skin incisions. Lacrimal ducts were cauterized and the entire gland was removed bilaterally, avoiding facial vessels and nerves. Incisions were each closed with a single interrupted 6-0 silk suture. Orbital lacrimal tissue remained functional. Eyes with reduced corneal sensation (<5% of mice studied), as identified from neurotrophic corneal ulcers within 1 day of LGE, were excluded. Mice were randomized to receive either treatment (in both eyes) with CFTRact-K089 (0.1 nmol) or vehicle. Mice were treated three times daily (8 AM, 2 PM and 8 PM) for 2 weeks starting on Day 1 after LGE. Tear secretion and LG staining were performed immediately prior to, and one hour after the initial dose on day 4, 10 and 14 after LGE.
Lissamine green staining. […] Each corneal quadrant was scored on a 3-point scale by one blinded, trained observer, with the extent of staining in each quadrant classified as: 0, no staining; 1, sporadic (involving <25% of the total surface) staining; grade 2, diffuse punctate staining (25-75%); and grade 3, coalesced punctate staining (≥75%). […]

[3] abbreviates: 10 mg/kg oral once per day, 7 days.
[4] abbreviates: 0.1 nmol topical three times daily.

With `Nc1ccc([N+](=O)[O-])cc1-c1nc2ccccc2n(Cc2ccccc2)c1=O` [CFTRact-J027, 3-(2-amino-5-nitrophenyl)-1-benzylquinoxalin-2(1H)-one], the whole-gut transit time entry in the data set on mice (10 mg/kg ip, loperamide-treated wild-type mice) is “normalized”. Moreover, the “whole-gut transit time in cystic fibrosis mice” value in the data set on mice (CF mice) was “no effect”. Besides, in data set [1] (10 mg/kg oral), the “toxicity after chronic administration” value is “without apparent toxicity”. Besides, in data set [1] (setting [3]), the ALP was determined as 53 ± 2.5 U/L, the ALT was found to be 44 ± 6 U/L, the AST was 105 ± 11 U/L and the Albumin amounted to 2.9 ± 0.03 g/dL. Besides, in data set [1] (setting [3]), the BUN amounted to 18.4 ± 1.2 mg/dL, the Bicarbonate was found to be 16 ± 1.7 mmol/L, the CK worked out at 312 ± 62 U/L and the Calcium came to 8.5 ± 0.04 mg/dL. In data set [1] (setting [3]), the Chloride was found to be 115 ± 1 mmol/L, the Cholesterol is 121 ± 6 mg/dL, the Creatinine was 0.2 ± 0 mg/dL and the Globulin worked out at 2.2 ± 0.1 g/dL. Also, in data set [1] (setting [3]), the Glucose is 164 ± 6 mg/dL, the Hemoglobin is recorded as 12.8 ± 0.3 g/dL, the Leukocytes is listed as 1.9 ± 0.5 10^3/μL and the Phosphorus came out at 6.8 ± 0.3 mg/dL. In data set [1] (setting [3]), the Potassium is given as 4.4 ± 0.1 mmol/L, the Sodium is on record as 151 ± 0.7 mmol/L, the Thrombocytes was 900 ± 48 10^3/μL and the Total bilirubin was 0.1 ± 0 mg/dL. The molecule also registered a Total protein in data set [1] (setting [3]) of 5.2 ± 0.1 g/dL. Also, in data set [1] (7-day treated mice), the “body weight and airway/lung fluid accumulation” value was “nor did it change body weight or produce airway/lung fluid accumulation”; the lung water content result is listed as “normal lung water content”; the “serum chemistry and blood parameters, in words” value is “did not affect the major serum chemistry and blood parameters”.
As to `CCN(CC)c1nc(Nc2ccccc2)nc(OC(C(F)(F)F)C(F)(F)F)n1` [CFTRact-K089, N,N-Diethyl-6-[(1,1,1,3,3,3-hexafluoropropan-2-yl)oxy]-N′-phenyl-1,3,5-triazine-2,4-diamine], in data set [2] (0.1 nmol three times daily, by Day 14, 12-point scale), the LG score change was −0.6±0.6. In addition, in data set [2] (setting [4]), the “corneal / ocular surface epithelial disruption after LGE” value is reported as “fully prevented the corneal epithelial disruption; also recorded: prevented ocular surface epithelial disruption at all time points” and the “tear secretion / tear volume after LGE” value is recorded as “restored tear secretion to basal levels; also recorded: maintained basal tear volume”.
